Data published in US20100190788A1, “Amide derivatives as kinase inhitors” (priority 2005, published 2010).

What follows are compounds tested against T1, human ROCKα/ROCKII mix (Homo sapiens, UniProt O75116) (assay: ROCK inhibition, fluorescence polarization (FP) assay with ROCK IMAP Kit). Conditions: Table 1, compounds of Formula IV20.
T1 construct: purchased Upstate Biotechnology 14-451
Type: biochemical
Procedure: The compounds were tested for inhibition of human ROCKα/ROCKII mix.
The inhibition assays were performed with a fluorescence polarization (FP) assay using the commercially available ROCK IMAP Kit from Molecular Devices (Product ID. No. R8093), essentially in accordance with the protocol supplied by the manufacturer. […] The enzyme mix ROCKα/ROCKII was obtained from Upstate Biotechnology (Product ID No 14-451).
In summary, all compounds were screened in the wells of a 384 well plate for enzymatic inhibition with concentrations varying from 100 μM to 0.3 nM using a stepwise 3 (or 2)-fold dilution.
To perform the assay, 1 μl of a solution of the compound to be tested in DMSO (at each concentration) was added to 2 μl of a solution of the enzyme in 10 mM Tris-HCl, 10 mM MgCl2, 0.1% BSA, 0.05% NaN3, pH 7.2. The final concentration of the enzyme was 2.6 nM.
After incubating for 30 minutes at RT, 2 μl of a mixture of ATP and the protein substrate in 10 mM Tris-HCl, 10 mM MgCl2, 0.1% BSA, 0.05% NaN3, pH 7.2 was added. The final concentration of the ATP was 10 μM and final concentration of protein substrate was 0.2 μM.
After incubating for 60 minutes at RT, 12 μl of the IMAP Binding Solution (mix of the IMAP Binding Buffer A (1×) and the IMAP Binding Reagent (from the ROCK IMAP kit)) was added.
The mixture thus obtained (total volume: 17 μl) was incubated for 60 minutes at RT, upon which the fluorescence polarization was measured using an automated plate reader (Perkin Elmer, Model Envision 2100-0010 HTS) with FP filters: excitation filter FITC FP 480 and emission filters FITC FP P-pol 535 and FITC FP S-pol 535 (Perkin-Elmer). The results were fitted to a curve using the XL-Fit algorithm and IC50 values were calculated for each fitted curve, again using the XL-Fit algorithm.

T1 sequence (O75116 whole entry): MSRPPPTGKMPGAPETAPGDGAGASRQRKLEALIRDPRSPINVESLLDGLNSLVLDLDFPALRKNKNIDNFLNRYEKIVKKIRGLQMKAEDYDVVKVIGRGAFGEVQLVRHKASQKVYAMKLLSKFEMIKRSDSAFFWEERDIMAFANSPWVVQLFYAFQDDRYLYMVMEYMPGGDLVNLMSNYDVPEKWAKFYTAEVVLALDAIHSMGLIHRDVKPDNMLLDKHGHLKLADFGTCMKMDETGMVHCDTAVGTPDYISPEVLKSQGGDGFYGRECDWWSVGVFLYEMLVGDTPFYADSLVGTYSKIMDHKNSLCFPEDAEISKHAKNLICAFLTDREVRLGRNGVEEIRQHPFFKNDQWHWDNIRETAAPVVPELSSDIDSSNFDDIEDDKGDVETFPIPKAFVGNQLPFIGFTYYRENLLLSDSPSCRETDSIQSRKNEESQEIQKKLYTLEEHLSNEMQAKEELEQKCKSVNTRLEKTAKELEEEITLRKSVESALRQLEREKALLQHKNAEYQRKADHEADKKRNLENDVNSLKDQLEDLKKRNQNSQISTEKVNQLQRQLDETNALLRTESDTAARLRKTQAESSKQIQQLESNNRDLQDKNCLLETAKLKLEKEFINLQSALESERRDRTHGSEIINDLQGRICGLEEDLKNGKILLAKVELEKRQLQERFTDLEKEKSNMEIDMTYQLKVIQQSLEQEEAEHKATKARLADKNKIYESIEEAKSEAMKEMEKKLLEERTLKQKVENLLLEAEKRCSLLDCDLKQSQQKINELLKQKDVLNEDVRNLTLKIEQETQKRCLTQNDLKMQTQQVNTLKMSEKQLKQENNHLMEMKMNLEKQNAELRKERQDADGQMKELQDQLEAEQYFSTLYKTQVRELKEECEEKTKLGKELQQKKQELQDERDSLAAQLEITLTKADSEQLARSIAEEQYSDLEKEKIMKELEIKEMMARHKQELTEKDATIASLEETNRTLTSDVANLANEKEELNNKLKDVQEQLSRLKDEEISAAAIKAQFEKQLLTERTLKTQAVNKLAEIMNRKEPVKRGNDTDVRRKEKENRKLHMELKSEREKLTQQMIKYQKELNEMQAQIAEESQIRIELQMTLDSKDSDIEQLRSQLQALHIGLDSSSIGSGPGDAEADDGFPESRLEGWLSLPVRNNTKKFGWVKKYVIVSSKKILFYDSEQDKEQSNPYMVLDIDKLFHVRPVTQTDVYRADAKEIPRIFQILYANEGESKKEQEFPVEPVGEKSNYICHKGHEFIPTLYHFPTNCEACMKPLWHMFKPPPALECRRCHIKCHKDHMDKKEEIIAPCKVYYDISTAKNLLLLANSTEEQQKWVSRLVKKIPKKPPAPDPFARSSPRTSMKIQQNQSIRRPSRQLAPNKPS

Structure (SMILES)	IC50
CONC(=O)C(N)c1ccc(C(=O)Nc2ccncc2)cc1 (stereo not drawn) [Compound 41, 4-(amino-methoxycarbamoyl-methyl)-N-pyridin-4-yl-benzamide]	0.5 to 5 µM
CN(CCO)C(=O)C(N)c1ccc(C(=O)Nc2ccncc2)cc1 (stereo not drawn) [Compound 42, 4-{amino-[(2-hydroxy-ethyl)-methyl-carbamoyl]-methyl}-N-pyridin-4-yl-benzamide]	0.5 to 5 µM
COCC(C)NC(=O)C(N)c1ccc(C(=O)Nc2ccncc2)cc1 (stereo not drawn) [Compound 43, 4-[amino-(2-methoxy-1-methyl-ethylcarbamoyl)-methyl]-N-pyridin-4-yl-benzamide]	0.5 to 5 µM
CN(C)CCNC(=O)C(N)c1ccc(C(=O)Nc2ccncc2)cc1 (stereo not drawn) [Compound 44]	0.5 to 5 µM
NC(C(=O)NCCN1CCOCC1)c1ccc(C(=O)Nc2ccncc2)cc1 (stereo not drawn) [Compound 45, 4-[amino-(2-morpholin-4-yl-ethylcarbamoyl)-methyl]-N-pyridin-4-yl-benzamide]	0.5 to 5 µM
CC(C)N1CCN(C(=O)C(N)c2ccc(C(=O)Nc3ccncc3)cc2)CC1 (stereo not drawn) [Compound 46, 4-[1-amino-2-(4-isopropyl-piperazin-1-yl)-2-oxo-ethyl]-N-pyridin-4-yl-benzamide]	0.5 to 5 µM
NC(C(=O)N1CCN(c2ccccc2)CC1)c1ccc(C(=O)Nc2ccncc2)cc1 (stereo not drawn) [Compound 47, 4-[1-amino-2-oxo-2-(4-phenyl-piperzin-1-yl)-ethyl]-N-pyridin-4-yl-benzamide]	0.5 to 5 µM
NC(C(=O)N1CCN(Cc2ccccc2F)CC1)c1ccc(C(=O)Nc2ccncc2)cc1 (stereo not drawn) [Compound 48, 4-{1-amino-2-[4-(2-fluoro-benzyl)-piperazin-1-yl]-2-oxo-ethyl}-N-pyridin-4-yl-benzamide]	0.5 to 5 µM
NC(C(=O)N1CCN(Cc2ccc(F)cc2)CC1)c1ccc(C(=O)Nc2ccncc2)cc1 (stereo not drawn) [Compound 49, 4-{1-amino-2-[4-(4-fluoro-benzyl)-piperazin-1-yl]-2-oxo-ethyl}-N-pyridin-4-yl-benzamide]	0.5 to 5 µM
COc1ccc(CN2CCN(C(=O)C(N)c3ccc(C(=O)Nc4ccncc4)cc3)CC2)cc1 (stereo not drawn) [Compound 50, 4-{1-amino-2-[4-(4-methoxy-benzyl)-piperazin-1-yl]-2-oxo-ethyl}-N-pyridin-4-yl-benzamide]	0.5 to 5 µM
NC(C(=O)NC1CCN(Cc2ccccc2)CC1)c1ccc(C(=O)Nc2ccncc2)cc1 (stereo not drawn) [Compound 51, 4-{amino-[1-benzyl-piperidin-4-ylcarbamoyl]-methyl}-N-pyridin-4-yl-benzamide]	0.5 to 5 µM
NC(C(=O)N1CCN(CCO)CC1)c1ccc(C(=O)Nc2ccncc2)cc1 (stereo not drawn) [Compound 52, 4-{1-amino-2-[4-(2-hydroxy-ethyl)-piperazin-1-yl]-2-oxo-ethyl}-N-pyridin-4-yl-benzamide]	0.5 to 5 µM
Cc1ccc(CN2CCC(NC(=O)C(N)c3ccc(C(=O)Nc4ccncc4)cc3)CC2)s1 (stereo not drawn) [Compound 53, 4-{amino-[1-(5-methyl-thiophen-2-ylmethyl)-piperidin-4-ylcarbamoyl]-methyl}-N-pyridin-4-yl-benzamide]	0.5 to 5 µM
CCCCNNC(=O)C(N)c1ccc(C(=O)Nc2ccncc2)cc1 (stereo not drawn) [Compound 54, 4-[amino-(N′-butyl-hydrazinocarbonyl)-methyl]-N-pyridin-4-yl-benzamide]	< 0.5 µM

Same assay, conditions: Table 2, compounds of Formula V20

IC50	Structure (SMILES)
< 0.5 µM	NC(CNS(=O)(=O)c1ccc(Cl)cc1)c1ccc(C(=O)Nc2ccncc2)cc1 (stereo not drawn) [Compound 67, 4-[1-amino-2-(4-chloro-benzenesulfonylamino)-ethyl]-N-pyridin-4-yl-benzamide]
< 0.5 µM	NC(CNS(=O)(=O)c1cccc(Cl)c1)c1ccc(C(=O)Nc2ccncc2)cc1 (stereo not drawn) [Compound 68, 4-[1-amino-2-(3-chloro-benzenesulfonylamino)-ethyl]-N-pyridin-4-yl-benzamide]
< 0.5 µM	NC(CNS(=O)(=O)c1ccccc1Cl)c1ccc(C(=O)Nc2ccncc2)cc1 (stereo not drawn) [Compound 69, 4-[1-amino-2-(2-chloro-benzenesulfonylamino)-ethyl]-N-pyridin-4-yl-benzamide]
< 0.5 µM	COc1ccc(S(=O)(=O)NCC(N)c2ccc(C(=O)Nc3ccncc3)cc2)cc1 (stereo not drawn) [Compound 70, 4-[1-amino-2-(4-methoxy-benzenesulfonylamino)-ethyl]-N-pyridin-4-yl-benzamide]
< 0.5 µM	COc1ccc(S(=O)(=O)NCC(N)c2ccc(C(=O)Nc3ccncc3)cc2)cc1OC (stereo not drawn) [Compound 71, 4-[1-amino-2-(3,4-dimethoxy-benzenesulfonylamino)-ethyl]-N-pyridin-4-yl-benzamide]
< 0.5 µM	COc1ccc(OC)c(S(=O)(=O)NCC(N)c2ccc(C(=O)Nc3ccncc3)cc2)c1 (stereo not drawn) [Compound 72, 4-[1-amino-2-(2,5-dimethoxy-benzenesulfonylamino)-ethyl]-N-pyridin-4-yl-benzamide]
0.5 to 5 µM	NC(CNS(=O)(=O)c1cccc(Oc2ccccc2)c1)c1ccc(C(=O)Nc2ccncc2)cc1 (stereo not drawn) [Compound 73, 4-[1-amino-2-(3-phenoxy-benzenesulfonylamino)-ethyl]-N-pyridin-4-yl-benzamide]
0.5 to 5 µM	NC(CNS(=O)(=O)c1ccc(Oc2ccccc2)cc1)c1ccc(C(=O)Nc2ccncc2)cc1 (stereo not drawn) [Compound 74, 4-[1-amino-2-(4-phenoxy-benzenesulfonylamino)-ethyl]-N-pyridin-4-yl-benzamide]
0.5 to 5 µM	NC(CNS(=O)(=O)c1cccc(-c2ccccc2)c1)c1ccc(C(=O)Nc2ccncc2)cc1 (stereo not drawn) [Compound 75]
0.5 to 5 µM	NC(CNS(=O)(=O)c1ccc(-c2ccccc2)cc1)c1ccc(C(=O)Nc2ccncc2)cc1 (stereo not drawn) [Compound 76]
< 0.5 µM	NC(CNS(=O)(=O)c1cccc2ccccc12)c1ccc(C(=O)Nc2ccncc2)cc1 (stereo not drawn) [Compound 77, 4-[1-amino-2-(naphthalene-1-sulfonylamino)-ethyl]-N-pyridin-4-yl-benzamide]
< 0.5 µM	NC(CNS(=O)(=O)c1cccs1)c1ccc(C(=O)Nc2ccncc2)cc1 (stereo not drawn) [Compound 78, 4-[1-amino-2-(thiophene-2-sulfonylamino)-ethyl]-N-pyridin-4-yl-benzamide]
< 0.5 µM	Cc1noc(C)c1S(=O)(=O)NCC(N)c1ccc(C(=O)Nc2ccncc2)cc1 (stereo not drawn) [Compound 79, 4-[1-amino-2-(3,5-dimethyl-isoxazole-4-sulfonylamino)-ethyl]-N-pyridin-4-yl-benzamide]

Further lines, the compound ahead of its results:

Structure (SMILES)	IC50
CS(=O)(=O)NCC(N)c1ccc(C(=O)Nc2ccncc2)cc1 (stereo not drawn) [Compound 55, 4-(1-amino-2-methanesulfonylamino-ethyl)-N-pyridin-4-yl-benzamide]	< 0.5 µM
CCS(=O)(=O)NCC(N)c1ccc(C(=O)Nc2ccncc2)cc1 (stereo not drawn) [Compound 56]	< 0.5 µM
CCCS(=O)(=O)NCC(N)c1ccc(C(=O)Nc2ccncc2)cc1 (stereo not drawn) [Compound 57, 4-[1-amino-2-(propane-1-sulfonylamino)-ethyl]-N-pyridin-4-yl-benzamide]	< 0.5 µM
CCCCS(=O)(=O)NCC(N)c1ccc(C(=O)Nc2ccncc2)cc1 (stereo not drawn) [Compound 58, 4-[1-amino-2-(butane-1-sulfonylamino)-ethyl]-N-pyridin-4-yl-benzamide]	< 0.5 µM
CCCCCCCCS(=O)(=O)NCC(N)c1ccc(C(=O)Nc2ccncc2)cc1 (stereo not drawn) [Compound 59, 4-[1-amino-2-(octane-1-sulfonylamino)-ethyl]-N-pyridin-4-yl-benzamide]	0.5 to 5 µM
NC(CNS(=O)(=O)Cc1ccccc1)c1ccc(C(=O)Nc2ccncc2)cc1 (stereo not drawn) [Compound 60, 4-(1-amino-2-phenylmethanesulfonylamino-ethyl)-N-pyridin-4-yl-benzamide]	< 0.5 µM
NC(CNS(=O)(=O)c1ccccc1)c1ccc(C(=O)Nc2ccncc2)cc1 (stereo not drawn) [Compound 61, 4-(1-amino-2-benzenesulfonylamino-ethyl)-N-pyridin-4-yl-benzamide]	< 0.5 µM
Cc1ccc(S(=O)(=O)NCC(N)c2ccc(C(=O)Nc3ccncc3)cc2)cc1 (stereo not drawn) [Compound 62, 4-[1-amino-2-(4-methyl-benzenesulfonylamino)-ethyl]-N-pyridin-4-yl-benzamide]	< 0.5 µM
Cc1cccc(S(=O)(=O)NCC(N)c2ccc(C(=O)Nc3ccncc3)cc2)c1 (stereo not drawn) [Compound 63]	< 0.5 µM
Cc1ccccc1S(=O)(=O)NCC(N)c1ccc(C(=O)Nc2ccncc2)cc1 (stereo not drawn) [Compound 64, 4-[1-amino-2-(2-methyl-benzenesulfonylamino)-ethyl]-N-pyridin-4-yl-benzamide]	< 0.5 µM
NC(CNS(=O)(=O)c1ccc(F)cc1)c1ccc(C(=O)Nc2ccncc2)cc1 (stereo not drawn) [Compound 65, 4-[1-amino-2-(4-fluoro-benzenesulfonylamino)-ethyl]-N-pyridin-4-yl-benzamide]	< 0.5 µM
NC(CNS(=O)(=O)c1ccccc1F)c1ccc(C(=O)Nc2ccncc2)cc1 (stereo not drawn) [Compound 66, 4-[1-amino-2-(2-fluoro-benzenesulfonylamino)-ethyl]-N-pyridin-4-yl-benzamide]	< 0.5 µM
